The values that follow come from patent publication US20070004689A1, “Antiangiogenic agents” (priority 2004, published 2007).

Like-named read-outs stand apart in the source and are kept apart here.

Data set [1] concerns MDA-MB-231 a human breast carcinoma. Nature of the data set: BrdU proliferation assay, MDA-MB-231 (anti-tumor activity). Format: cell-based. To be noted: BrdU DNA synthesis, 48 h exposure, read-out: MDA-MB-231 (IC50 μM). The text has this: (§1) Cell Culture: Human umbilical vein endothelial cells (HUVEC) were obtained from Clonetics (San Diego, Calif.), MCF7 cells were the kind gift of Dr. Dorraya El Ashry (University of Michigan), MDA-MB-231 a human breast carcinoma, PC3 a human prostate carcinoma, and U87-MG a human glioma, cell lines were obtained from ATCC. HUVEC cultures were maintained for up to 5 passages in EGM containing bovine brain extract (Clonetics) and 1× antibiotic-antimycotic (BioWhittaker, Walkersville, Md.). MDA-MB-231, PC3, U87-MG and MCF-7 cells were maintained in DMEM/F12 (1:1) containing 10% (v/v) fetal bovine serum (Hyclone Laboratories, Logan, Utah) and 1× antibiotic-antimycotic. MCF7 cells were used between passage 60 and passage 100.
(§2) Proliferation Assays: Proliferation was measured by cell counting using a Coulter Zl cell counter (Coulter Corporation, Hialeah, Fla.) or by evaluation of DNA synthesis. Each condition was done in triplicate and experiments were repeated at least twice. To determine estrogenicity of the analogs, MCF7 estrogen-dependent proliferation assays were performed. The cells were seeded in complete media at 10,000 cells/well in a 24 well plate after allowing the cells to adhere overnight and the seeding density was determined by cell counts. Cells were washed with PBS (37° C.) and starved by placing them in IMEM-phenol red free media containing 2% charcoal-dextran fetal bovine-stripped serum (Valley Biomedical, Winchester, Va.) and 1× antibiotic-antimycotic. After 3 days of starvation, cells were treated with or without increasing concentrations of compounds, replacing the media every 2-3 days and counted after 7 days of treatment. In order to ensure that only the added test compounds stimulated growth, experiments were performed only with cell cultures that duplicated less than once during the starvation period. Values are expressed as MCF7 stimulation index (SI) relative to 2ME2 (defined as 1.00). A value less than 1.00 indicates reduced estrogenicity. Estradiol is used as a positive control.
(§3) To determine anti-tumor and anti-angiogenic activities of the analogs, proliferation assays were performed by evaluating detection of DNA synthesis by use of the 5-bromo-2′-deoxyuridine (BrdU) cell proliferation colorimetric ELISA kit from Roche (Indianapolis, Ind.) according to the manufacturer's instructions. For BrdU assays, the cells were seeded at 1,000 cells/well (MDA-MB-231, anti-tumor activity) or 3,000 cells/well (HUVEC, anti-angiogenic activity) in a 96 well plate, allowed to attach overnight and then exposed to the compound for 48 h. IC50 value is the concentration at which cell proliferation is inhibited by 50%.
(§4) Antiproliferative activity of the NCEs were assessed in tumor cell lines (MDA-MB-231 a breast carcinoma, PC3 a prostate carcinoma and U87-MG a glioma) and endothelial cells (HUVEC).

Data set [2] has as its system PC3 a human prostate carcinoma. Description: Proliferation assay, PC3. It is filed as cell-based. To be noted: proliferation, read-out: PC3 (IC50 μM).
Text: as §1, §2, §3, §4

A further data set has as its system MCF7 cells. Description: MCF7 estrogen-dependent proliferation assay (estrogenicity). To be noted: stimulation index, 2ME2 defined as 1.00; less than 1.00 = reduced estrogenicity; 7 days of treatment. Format: cell-based, human.
Text: as §1
as §2, with “[…].” for “Values are expressed as MCF7 stimulation index (SI) relative to 2ME2 (defined as 1.00). A value less than 1.00 indicates reduced estrogenicity.”

Data set [3] is described as follows: Rat pharmacokinetics, cassette dosing, oral. It is filed as in vivo. To be noted: oral 5 mg/kg, plasma. The protocol:
Pharmokinetics (PK): PO Cmax is the maximal concentration of drug achieved after oral administration in rats and AUC is the area under the curve. These parameters are an indication of oral bioavailability. PK parameters were determined using a cassette-dosing approach. A group of new chemical entities (NCEs) (usually 3-6 molecules) was dissolved in DMSO or ethanol and diluted with a solution of a dextrin polymer to the final working concentration (usually 0.2-2 mg/mL). Groups of three rats with in-dwelling catheters were dosed either orally (5 mg/kg) or i.v. (1 mg/kg) with the cassette of NCEs. Blood was collected at nine time points from 2 minutes to 24 hours. Plasma was separated and aliquots of the replicate samples were pooled for analysis. Plasma proteins were precipitated by addition of organic solvent (most often methanol or acetonitrile). For some analogs, an acid modifier was added to the precipitation mixture to enhance recovery. Precipitated proteins were removed by centrifugation and the supernatant was injected onto a C18 reversed phase column attached to an LC-MS-MS mass spectrometer. Analytes were partly resolved by a rapid (5 minute) gradient of organic modifier. Analytes were measured as either positive or negative ions, depending on ionization characteristics, in the SRM (or MS-MS) mode. Quantification was carried out by correlation of peak heights or areas for each analyte to a set of concentration standards of the same analytes diluted into blank plasma. Concentration vs. time data was analyzed by WinNonLin.

By IC50 is commonly meant the concentration needed to halve the response being measured. One may read the AUC as the area under the concentration-time curve, a measure of exposure. In general, Cmax refers to the highest concentration seen after dosing. In the case of `COc1cc2c(cc1C(N)=O)CC[C@@H]1[C@@H]2CC[C@]2(C)C(=O)CC[C@@H]12` [Compound 54, 2-methoxy-17-oxoestra-1,3,5(10)-triene-3-carboxamide], the IC50 in data set [1] (Homo sapiens, MDA-MB-231) amounted to 2.2 ± 0.43 µM. Besides, in data set [2] (Homo sapiens), the IC50 is 4.64 ± 0.9 µM. Moreover, in the data set with MCF7 cells, the “MCF7 SI Relative to 2ME2” value was 0.26. Moreover, in data set [3] (rat), the AUC was 0.185 µM·h and the Cmax turned out to be 47 nM.
As to `COc1cc2c(cc1C(N)=O)CC[C@@H]1[C@@H]2CC[C@]2(C)C=CC[C@@H]12` [Compound 63, 3-carboxamide-2-methoxy-1,3,5(10)16-estratetraene], the IC50 in data set [1] was 0.19 ± 0.04 µM. Also, the IC50 in data set [2] amounted to 0.21 ± 0.1 µM. In addition, in the data set with MCF7 cells, the “MCF7 SI Relative to 2ME2” value stood at 0.28. In data set [3], the concentration peaked (Cmax) at 127 nM and the Rat PO AUC (nM) turned out to be 0.961 µM·h.
Consider `C=C1CC[C@H]2[C@@H]3CCc4cc(C(N)=O)c(OC)cc4[C@H]3CC[C@]12C` [Compound 60, 2-Methoxy-17-methyleneestra-1,3,5(10)-triene-3-carboxamide], for which the IC50 in data set [1] (Homo sapiens, MDA-MB-231) was 0.19 ± 0.08 µM. Further, the concentration for half-maximal inhibition (IC50) in data set [2] (Homo sapiens) was determined as 0.25 ± 0.01 µM. For the same molecule, the “MCF7 SI Relative to 2ME2” value in the data set with MCF7 cells was determined as 0.26. In data set [3] (rat), the AUC was found to be 1.4 µM·h and the highest level (Cmax) was 185 nM.
Turning to `COc1cc2c(cc1C(N)=O)CC[C@@H]1[C@@H]2CC[C@]2(C)CCC[C@@H]12` [Compound 57, (2-Methoxyestra-1,3,5(10)-trien-3-yl)-3-carboxamide], in data set [1], the IC50 was 2.37 ± 0.8 µM. In data set [2], the concentration for half-maximal inhibition (IC50) was 5.7 ± 0.58 µM. Also, the “MCF7 SI Relative to 2ME2” value in the data set with MCF7 cells turned out to be 0.31. In data set [3], this molecule showed a Cmax of 130 nM and a Rat PO AUC (nM) of 0.624 µM·h.
